Target: BACE1 (Homo sapiens (Human), UniProt P56817)
Assay: Cellular Aβ-lowering assay (Abeta 40 AlphaLISA)
Type: cell-based
Conditions: HEK293 APP cells, 18-20 hrs incubation, Aβ 40 in culture supernatants; read-out: BACE1 cell act. Aβ40, IC50
Method: Cellular Aβ-Lowering Assay:
The Abeta 40 AlphaLISA Assay can be used. The HEK293 APP cells were seeded in 96 well Microtiter plates in cell culture medium (Iscove's, plus 10% (v/v) fetal bovine serum, penicillin/streptomycin) to about 80% confluency and the compounds were added at a 3× concentration in ⅓ volume of culture medium (final DMSO concentration was kept at 1% v/v). After 18-20 hrs incubation at 37° C. and 5% CO2 in a humidified incubator, the culture supernatants were harvested for the determination of Aβ 40 concentrations using Perkin-Elmer Human Amyloid beta 1-40 (high specificity) Kit (Cat#AL275C).
In a Perkin-Elmer White Optiplate-384 (Cat#6007290), 2 ul culture supernatants were combined with 2 μl of a 10× AlphaLISA Anti-hAβAcceptor beads+Biotinylated Antibody Anti-Aβ 1-40 Mix (50 μg/mL/5 nM). After 1 hour room temperature incubation, 16 μl of a 1.25× preparation of Streptavidin (SA) Donor beads (25 μg/mL) were added and incubated for 30 minutes in the Dark. Light Emission at 615 nm was then recorded using EnVision-Alpha Reader. Levels of Aβ 40 in the culture supernatants were calculated as percentage of maximum signal (cells treated with 1% DMSO without inhibitor). The IC50 values were calculated using the Excel XLfit software.

Chain of BACE1 (P56817 46-501): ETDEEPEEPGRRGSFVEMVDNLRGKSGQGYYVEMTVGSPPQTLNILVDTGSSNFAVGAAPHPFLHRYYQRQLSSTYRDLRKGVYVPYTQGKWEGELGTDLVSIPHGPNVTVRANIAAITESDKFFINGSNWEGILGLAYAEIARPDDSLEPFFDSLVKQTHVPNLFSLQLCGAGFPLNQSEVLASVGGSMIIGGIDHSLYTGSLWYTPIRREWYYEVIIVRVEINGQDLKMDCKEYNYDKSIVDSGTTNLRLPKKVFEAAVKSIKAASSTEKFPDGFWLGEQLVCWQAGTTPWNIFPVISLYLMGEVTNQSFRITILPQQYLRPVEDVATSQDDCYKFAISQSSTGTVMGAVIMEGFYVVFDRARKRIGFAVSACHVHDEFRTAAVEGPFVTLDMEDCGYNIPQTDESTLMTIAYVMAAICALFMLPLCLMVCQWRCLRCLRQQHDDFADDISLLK

Row | IC50 | Structure (SMILES)
1 | 8.2 nM | C[C@@]1(c2cc(NC(=O)c3ccc(C#N)cn3)ccc2F)CS(=O)(=O)CC(N)=N1 [Example 2, 5-Cyano-pyridine-2-carboxylic acid [3-((R)-5-amino-3-methyl-1,1-dioxo-1,2,3,6-tetrahydro-1λ6-[1,4]thiazin-3-yl)-4-fluoro-phenyl]-amide]
2 | 6.1 nM | C[C@@]1(c2cc(NC(=O)c3ccc(Cl)cn3)ccc2F)CS(=O)(=O)CC(N)=N1 [Example 3, 5-Chloro-pyridine-2-carboxylic acid [3-((R)-5-amino-3-methyl-1,1-dioxo-1,2,3,6-tetrahydro-1λ6-[1,4]thiazin-3-yl)-4-fluoro-phenyl]-amide]
3 | 0.2 nM | CC1(C)C(N)=N[C@](C)(c2cc(NC(=O)c3ccc(C#N)cn3)ccc2F)CS1(=O)=O [Example 6, 5-Cyano-pyridine-2-carboxylic acid [3-((R)-5-amino-3,6,6-trimethyl-1,1-dioxo-1,2,3,6-tetrahydro-1λ6-[1,4]thiazin-3-yl)-4-fluoro-phenyl]-amide]
4 | 5.7 nM | C[C@@]1(c2cc(NC(=O)c3ccc(OC(F)F)cn3)ccc2F)CS(=O)(=O)CC(N)=N1 [Example 4, 5-Difluoromethoxy-pyridine-2-carboxylic acid [3-((R)-5-amino-3-methyl-1,1-dioxo-1,2,3,6-tetrahydro-1λ6-[1,4]thiazin-3-yl)-4-fluoro-phenyl]-amide]
5 | 11 nM | C[C@@]1(c2cc(NC(=O)c3ccc(C#N)cn3)ccc2F)CSCC(N)=N1 [Example 1, (R)—N-(3-(5-amino-3-methyl-3,6-dihydro-2H-1,4-thiazin-3-yl)-4-fluorophenyl)-5-cyanopicolinamide]
6 | 1 nM | C[C@@]1(c2cc(NC(=O)c3ccc(C#N)cn3)ccc2F)CS(=O)(=O)C2(CCCC2)C(N)=N1 [Example 9, 5-Cyano-pyridine-2-carboxylic acid [3-((R)-10-amino-8-methyl-6,6-dioxo-6λ6-thia-9-aza-spiro[4.5]dec-9-en-8-yl)-4-fluoro-phenyl]-amide]

Source: patent US9273042B2, “5-amino[1,4]thiazines as BACE 1 inhibitors” (Hoffmann-La Roche Inc., priority 2012, dated 2016)
